Results: BigSolDB 2.1

C[C@@H]1O[C@@H](O[C@H]2[C@H](Oc3cc(O)c4c(c3)O[C@H](c3ccc(O)cc3)CC4=O)O[C@H](CO)[C@@H](O)[C@@H]2O)[C@H](O)[C@H](O)[C@H]1O
solubility (mole fraction)
Settings	283.15 K	288.15 K	293.15 K	298.15 K	303.15 K	308.15 K	313.15 K	318.15 K
in ethanol	2.26e-05	2.57e-05	3.45e-05	4.05e-05	5.17e-05	6.25e-05	7.96e-05	0.000102
in water	6.21e-07	7.14e-07	9.76e-07	2.87e-06	6.15e-06	1.1e-05	1.55e-05	2.32e-05
